Values quoted from earlier work in paper PMC11125331, “Pharmaceutical Compounding in Veterinary Medicine: Suspension of Itraconazole” (Pharmaceutics, 2024).
Read-outs that look alike come from different tables or passages of the source. Blank lines part the entries; values can stand above or below the compound they belong to.

Experiments:
[1] = set-up: method as in PMID 28627123
dogs [2] = tested on: dogs; set-up: method as in PMID 35245984, PMID 34109637; conditions: orally at 10 mg/kg
cats = tested on: cats; set-up: method as in PMID 35245984, PMID 34109637; conditions: punctual administrations
dogs [3] = tested on: dogs; set-up: method as in earlier work

- Biopharmaceutical Classification System class: class II
- log P (n-octanol/water) (at pH 8.1): 5.66
- Solubility (in 0.1 M chlorhydric acid (HCl)): 4 to 6 µg/mL
- Solubility (in water): 0.001 to 0.004 µg/mL
- Concentration in skin and hair relative to plasma levels [1]: ten times higher than plasma levels
Compound: CCC(C)n1ncn(-c2ccc(N3CCN(c4ccc(OCC5COC(Cn6cncn6)(c6ccc(Cl)cc6Cl)O5)cc4)CC3)cc2)c1=O (centres unmarked) [Itraconazole]

Compound: polysorbate 80
- Adverse effects (dogs [2]): produces cardiovascular changes and hypersensitivity effects
- Safety (cats): safe

Compound: OC[C@@H](O)[C@H](O)[C@@H](O)CO [xylitol]
- Adverse effects (dogs [3]): can cause severe hypoglycemia
